Measurements: patent US9573961B2, “Inhibitors of the renal outer medullary potassium channel” (Merck Sharp & Dohme Corp., priority 2012, dated 2017)

Target: Kir1.1 (ROMK1) (Homo sapiens (Human), UniProt P48048)
Experiment: Electrophysiology Assay (whole cell voltage clamp, IonWorks Quattro)
Type: cell-based
Settings: Chinese hamster ovary cells stably expressing Kir1.1; block during voltage step to 0 mV; read-out: Electrophysiology IC50
Experimental: Chinese hamster ovary cells stably expressing Kir1.1 channels were maintained in T-75 flasks in cell culture media in a humidified 10% CO2 incubator at 37° C. Prior to an experiment, Kir1.1 expression was induced by overnight incubation with 1 mM sodium butyrate. […] After centrifugation, the cell pellet was resuspended in approximately 4.0 mL of bath solution and placed in the IonWorks instrument. The intracellular solution consisted of (in mM): 80 K gluconate, 40 KCl, 20 KF, 3.2 MgCl2, 3 EGTA, 5 Hepes, pH 7.4. Electrical access to the cytoplasm was achieved by perforation in 0.13 mg/mL amphotericin B for 4 min. […] Voltage protocols and current recordings were performed using the IonWorks HT software/hardware system. Currents were sampled at 1 kHz. No correction for liquid junction potentials was used. The test pulse, consisting of a 100 ms step to 0 mV from a holding potential of −70 mV, followed by a 100 ms voltage ramp from −70 mV to +70 mV, was applied before and after a 6 min compound incubation period. Test compounds were prepared by diluting DMSO stock solutions into the bath solution at 3× the final concentration and placed in the instrument in 96-well polypropylene plates. Current amplitudes were measured using the IonWorks software.

Sequence of Kir1.1 (ROMK1) (P48048 whole entry): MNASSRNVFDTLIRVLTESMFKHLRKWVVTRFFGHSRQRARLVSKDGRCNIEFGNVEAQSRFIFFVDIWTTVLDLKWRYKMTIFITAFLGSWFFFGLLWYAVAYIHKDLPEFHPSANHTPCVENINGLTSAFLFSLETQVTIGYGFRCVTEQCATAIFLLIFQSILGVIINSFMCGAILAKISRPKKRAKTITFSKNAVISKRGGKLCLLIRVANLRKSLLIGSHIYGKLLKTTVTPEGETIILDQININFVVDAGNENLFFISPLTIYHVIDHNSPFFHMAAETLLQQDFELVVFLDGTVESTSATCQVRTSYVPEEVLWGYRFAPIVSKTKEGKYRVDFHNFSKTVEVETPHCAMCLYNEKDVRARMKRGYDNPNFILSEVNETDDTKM

`N#Cc1cc([C@H]2CN3CCN(C(=O)C4CCc5cc(-n6cnnn6)ccc54)C[C@H]3CO2)ccc1F` (stereo partly drawn) [Example 3, 2-fluoro-5-[(3S,9aS)-8-{[5-(1H-tetrazol-1-yl)-2,3-dihydro-1H-inden-1-yl]carbonyl}octahydropyrazino[2,1-c][1,4]oxazin-3-yl]benzonitrile] and `N#Cc1cc([C@@H]2CN3CCN(C(=O)C4CCc5cc(-n6cnnn6)ccc54)C[C@H]3CO2)ccc1F` (stereo partly drawn) [Example 4, 2-fluoro-5-[(3R,9aS)-8-{[5-(1H-tetrazol-1-yl)-2,3-dihydro-1H-inden-1-yl]carbonyl}octahydropyrazino[2,1-c][1,4]oxazin-3-yl]benzonitrile] are within 1.5-fold of each other in IC50: 180 nM for the first, 190 nM for the second.

`O=C1OCc2cc([C@H]3CN4CCN(C(=O)Cc5ccc(-n6cnnn6)cc5)C[C@H]4CO3)ccc21` [Example 7, 5-[(3S,9aS)-8-{[4-(1H-tetrazol-1-yl)phenyl]acetyl}octahydropyrazino[2,1-c][1,4]oxazin-3-yl]-2-benzofuran-1(3H)-one] and `O=C1OCc2cc([C@@H]3CN4CCN(C(=O)Cc5ccc(-n6cnnn6)cc5)C[C@H]4CO3)ccc21` [Example 8, 5-[(3R,9aS)-8-{[4-(1H-tetrazol-1-yl)phenyl]acetyl}octahydropyrazino[2,1-c][1,4]oxazin-3-yl]-2-benzofuran-1(3H)-one] are within 1.5-fold of each other in IC50: 170 nM for the first, 140 nM for the second.

`COc1cc(CC(=O)N2CCN3C[C@H](c4ccc5c(c4)COC5=O)OC[C@@H]3C2)c(F)cc1C#N` [Example 9, 5-fluoro-2-methoxy-4-{2-oxo-2-[(3S,9aS)-3-(1-oxo-1,3-dihydro-2-benzofuran-5-yl)hexahydropyrazino[2,1-c][1,4]oxazin-8(1H)-yl]ethyl}benzonitrile] and `COc1cc(CC(=O)N2CCN3C[C@H](c4ccc5c(c4C)COC5=O)OC[C@@H]3C2)c(F)cc1C#N` [Example 16, 5-fluoro-2-methoxy-4-{2-[(3S,9aS)-3-(4-methyl-1-oxo-1,3-dihydro-2-benzofuran-5-yl)hexahydropyrazino[2,1-c][1,4]oxazin-8(1H)-yl]-2-oxoethyl}benzonitrile] are within 1.5-fold of each other in IC50: 140 nM for the first, 180 nM for the second.

`O=C1OCc2cc([C@H]3CN4CCN(C(=O)C5CCc6cc(-n7cnnn7)ccc65)C[C@H]4CO3)ccc21` (stereo partly drawn) [Example 11, 5-[(3S,9aS)-8-{[5-(1H-tetrazol-1-yl)-2,3-dihydro-1H-inden-1-yl]carbonyl}octahydropyrazino[2,1-c][1,4]oxazin-3-yl]-2-benzofuran-1(3H)-one] and `O=C1OCc2cc([C@@H]3CN4CCN(C(=O)C5CCc6cc(-n7cnnn7)ccc65)C[C@H]4CO3)ccc21` (stereo partly drawn) [Example 12, 5-[(3R,9aS)-8-{[5-(1H-tetrazol-1-yl)-2,3-dihydro-1H-inden-1-yl]carbonyl}octahydropyrazino[2,1-c][1,4]oxazin-3-yl]-2-benzofuran-1(3H)-one] are within 1.5-fold of each other in IC50: 340 nM for the first, 250 nM for the second.

For `COc1cc(CC(=O)N2CCN3C[C@@H](c4ccc5c(c4C)COC5=O)OC[C@@H]3C2)c(F)cc1C#N` [Example 17, 5-fluoro-2-methoxy-4-{2-[(3R,9aS)-3-(4-methyl-1-oxo-1,3-dihydro-2-benzofuran-5-yl)hexahydropyrazino[2,1-c][1,4]oxazin-8(1H)-yl]-2-oxoethyl}benzonitrile], the IC50 was 160 nM.

Same assay, conditions: Electrophysiology IC50, Chinese hamster ovary cells stably expressing Kir1.1; block during voltage step to 0 mV

Compared with `Cc1c([C@H]2CN3CCN(C(=O)Cc4ccc(-n5cnnn5)cc4)C[C@H]3CO2)ccc2c1COC2=O` [Example 1B, 4-methyl-5-[(3S,9aS)-8-{[4-(1H-tetrazol-1-yl)phenyl]acetyl}octahydropyrazino[2,1-c][1,4]oxazin-3-yl]-2-benzofuran-1(3H)-one], `COc1cc(CC(=O)N2CCN3C[C@@H](c4ccc(F)c(C#N)c4)OC[C@@H]3C2)ccc1C#N` [Example 6] is 2.1-fold lower in IC50: 330 nM for the first, 160 nM for the second.

`N#Cc1cc([C@@H]2CN3CCN(C(=O)Cc4cc(F)c(C#N)cc4F)C[C@H]3CO2)ccc1F` [Example 5, 4-{2-[(3R,9aS)-3-(3-cyano-4-fluorophenyl)hexahydropyrazino[2,1-c][1,4]oxazin-8(1H)-yl]-2-oxoethyl}-2,5-difluorobenzonitrile] showed an IC50 of 120 nM.
